Laboratory results published in patent EP2236511A2, “LIGANDS OF ALPHA-ADRENOCEPTORS AND OF DOPAMINE, HISTAMINE, IMIDAZOLINE AND SEROTONIN RECEPTORS AND THE USE THEREOF” (priority 2007, dated 2009).
pIC50, pKi: −log10 of the molar value. Structures can show the parent of a compound that is named as a salt. Where two headings read alike, the source gives them in different places.

Tests used:
male mice of BALB/c line = test: Passive Avoidance of mice in the Shuttle Chamber, memory disturbed by Scopolamine; type: in vivo; conditions: Scopolamine 0.3 mg/kg, injected 30 minutes before training; figures 1-3
Experimental: Example 14. […] A shuttle chamber (Ugo Basile, Italy) consisted of two sections was used. […] The sections were connected through a hole which could be overlapped by a vertical door. The floor was made of transverse metal bars on which DC current impulses could be fed. Experiments were carried out in aged male mice of BALB/c line weighing 20-24 grams.
Each group consisted of at least 8 animals. Animal was placed in light section, and latent period of the first entry into dark chamber was registered. Then the vertical door was closed and the animal was punished by 0.6 mA DC current for 3 seconds. After that it was taken back to its homecage. In 22-24 hours the same animal was placed again in light section of the shuttle chamber and latent period of its first entry into dark section, the total time of its stay in light section, and the number of entries into dark section, were registered. Each monitoring lasted for 5 minutes.
Testing was carried out during the day time in isolated laboratory using white noise at level of about 70 decibel above human hearing threshold.
Scopolamine causes the disturbance of training (memory loss) that results in […].

human H1 receptor = biological target: T1, human H1 receptor (Homo sapiens, UniProt P35367); test: Radioligand binding to histamine receptor H1 ([3H] Pyrilamine, CHO-K1 membranes)
T1 construct: expressed in transfected cells; host or cells: CHO-K1
Source text: Biochem Biophys Res Comm. 197(3): 1601-1608, 1993]. […] Biochem Biophys Res Comm. 197(3): 1601-1608, 1993].
Pyrilamine is used as positive control.

human H2 receptor = biological target: T2, human H2 receptor (Homo sapiens, UniProt P25021); test: Radioligand binding to histamine receptor H2 ([125I] Aminopotentidine, CHO-K1 membranes); conditions: for inhibition at 10 µM: read-out: Histamine receptors, % inhibition H2
T2 construct: expressed in transfected cells; host or cells: CHO-K1
Source text: Proc Natl Acad Sci USA. 87(5): 1658-1662, 1990]. […] Proc Natl Acad Sci USA. 87(5): 1658-1662, 1990]. […] Tiotidine is used as positive control.

[1] = biological target: T3, recombinant human 5-HT2C receptor (Homo sapiens, UniProt P28335); test: Radioligand binding to serotonin receptor 5-HT2C ([3H] Mesulergine, CHO-K1 membranes); conditions: read-out: 5-HT2C % inhibition
T3 construct: expressed in transfected cells; host or cells: CHO-K1
T3 sequence (P28335 33-458): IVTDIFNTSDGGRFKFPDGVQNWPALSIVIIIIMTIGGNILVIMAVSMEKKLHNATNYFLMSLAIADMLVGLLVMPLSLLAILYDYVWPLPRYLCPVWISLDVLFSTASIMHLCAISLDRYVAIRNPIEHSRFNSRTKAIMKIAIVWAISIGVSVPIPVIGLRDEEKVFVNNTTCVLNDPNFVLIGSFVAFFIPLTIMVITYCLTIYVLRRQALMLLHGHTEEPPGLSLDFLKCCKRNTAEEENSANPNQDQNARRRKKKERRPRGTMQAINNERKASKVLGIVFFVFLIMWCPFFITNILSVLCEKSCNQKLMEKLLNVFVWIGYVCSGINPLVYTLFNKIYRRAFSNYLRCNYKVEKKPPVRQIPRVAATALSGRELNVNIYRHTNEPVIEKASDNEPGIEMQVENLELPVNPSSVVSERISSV
Source text: J Neurochem. 69: 1449 - 1458, 1997]. […] SB242084 is used as positive control.

human α2A receptor = biological target: T4, human α2A receptor (Homo sapiens, UniProt P08913); test: Radioligand binding to adrenergic receptor α2A ([3H] MK-912, Sf9 membranes)
T4 construct: expressed in transfected cells; host or cells: Sf9
T4 sequence (P08913 1-465): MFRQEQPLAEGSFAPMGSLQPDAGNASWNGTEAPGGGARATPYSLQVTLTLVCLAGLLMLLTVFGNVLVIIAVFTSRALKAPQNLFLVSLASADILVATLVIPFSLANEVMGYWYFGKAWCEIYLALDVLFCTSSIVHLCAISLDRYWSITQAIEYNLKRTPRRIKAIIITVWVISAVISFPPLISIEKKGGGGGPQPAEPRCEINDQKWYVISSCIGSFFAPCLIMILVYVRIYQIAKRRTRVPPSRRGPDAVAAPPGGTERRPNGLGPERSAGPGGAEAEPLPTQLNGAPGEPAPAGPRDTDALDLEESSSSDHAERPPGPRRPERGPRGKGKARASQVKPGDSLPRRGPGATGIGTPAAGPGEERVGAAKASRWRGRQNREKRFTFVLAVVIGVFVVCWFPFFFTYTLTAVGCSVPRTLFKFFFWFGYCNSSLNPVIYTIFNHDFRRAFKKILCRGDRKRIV
Source text: For this purpose sDNA of human α2A receptor is expressed in Sf9 cells, as described in [Uhlen S, Porter AC and Neubig RR. […] J Pharmacol ExpTher. […] J Pharmacol ExpTher. […] Yohimbine is used as positive control.

human α1D receptor = biological target: T5, human α1D receptor (Homo sapiens, UniProt P25100); test: Radioligand binding to adrenergic receptor α1D ([3H] Prazosin, HEK-293 membranes); conditions: for inhibition at 10 µM: read-out: α-Adrenoceptor, % inhibition α1D; for α-Adrenoceptor, % inhibition α1D: 10 µM ligand
T5 construct: expressed in transfected cells; host or cells: HEK-293
T5 sequence (P25100 1-572): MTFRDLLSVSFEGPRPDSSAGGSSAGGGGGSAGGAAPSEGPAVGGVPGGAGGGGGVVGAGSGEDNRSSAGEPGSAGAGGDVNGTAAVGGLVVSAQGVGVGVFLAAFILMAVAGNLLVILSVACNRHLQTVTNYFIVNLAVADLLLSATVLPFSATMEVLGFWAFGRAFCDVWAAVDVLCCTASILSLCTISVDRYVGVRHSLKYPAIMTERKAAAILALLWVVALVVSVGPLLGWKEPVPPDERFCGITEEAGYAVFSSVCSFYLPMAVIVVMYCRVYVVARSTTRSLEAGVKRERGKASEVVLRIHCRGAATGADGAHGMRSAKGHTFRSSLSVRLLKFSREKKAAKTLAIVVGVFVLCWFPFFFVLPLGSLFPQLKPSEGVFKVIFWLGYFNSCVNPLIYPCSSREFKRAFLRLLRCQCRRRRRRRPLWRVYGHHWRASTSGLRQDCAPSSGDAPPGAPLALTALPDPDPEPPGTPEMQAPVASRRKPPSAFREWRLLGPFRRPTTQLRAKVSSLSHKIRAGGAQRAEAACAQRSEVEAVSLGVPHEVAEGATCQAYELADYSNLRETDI
Source text: 6-C. […] For this purpose sDNA of human α1D receptor is expressed in HEK-293 cells, as it was described in [TL Theroux, TA Esbenshade, RD Peavy and KP Minneman. Coupling efficiencies of human alpha 1-adrenergic receptor subtypes: titration of receptor density and responsiveness with inducible and repressible expression vectors. Mol Pharmacol.; 50: 1376-1387, 1996]. […] Characterization of an α1D-adrenoceptor mediating the contractile response of rat aorta to noradrenaline. […] Prazosin is used as positive control.

imidazoline receptor I2 = test: Radioligand binding to imidazoline receptor I2 ([3H] Idazoxan, rat brain membranes); conditions: 10 µM ligand
Experimental: For this purpose membrane species are prepared from rat (Wistar) brain homogenates by homogenization of them in glass homogenizer with the subsequent separation of plasmatic membranes from cell nuclei, mitochondrias and cell wreckages by differential centrifugation. […] After incubation the samples are filtered in vacuo on glass-microfiber filters G/F (Millipor, USA), filters are washed three times with cold solution of medium and radioactivity is measured by scintillation counter MicroBeta 340 (Perkin Elmer, USA). […] Idazoxan is used as positive control.
The tested compounds' binding to the receptor is determined by their ability to displace the radioligand and expressed in percent of displacement (%I). Values of %I are calculated according to the following equation: %I = (TA-CA)/(TA-NA)*100, [formula] wherein: TA - is the overall radioactivity in the presence of radioligand only, CA - is the radioactivity in the presence of radioligand and tested compound and NA - is a radioactivity in the presence of radioligand and Idazoxan (1 µM).

adrenergic receptor α1A = biological target: T6, adrenergic receptor α1A (Rattus norvegicus, UniProt P43140); test: Radioligand binding to adrenergic receptor α1A ([3H] Prazosin, rat submaxillary gland membranes); conditions: for α-Adrenoceptor, % inhibition α1A: 10 µM ligand
T6 construct: membrane species from rat submaxillary glands (rat of Wistar breed) are prepared; from tissue; host or cells: rat (Wistar) submaxillary gland
T6 sequence (P43140 1-466): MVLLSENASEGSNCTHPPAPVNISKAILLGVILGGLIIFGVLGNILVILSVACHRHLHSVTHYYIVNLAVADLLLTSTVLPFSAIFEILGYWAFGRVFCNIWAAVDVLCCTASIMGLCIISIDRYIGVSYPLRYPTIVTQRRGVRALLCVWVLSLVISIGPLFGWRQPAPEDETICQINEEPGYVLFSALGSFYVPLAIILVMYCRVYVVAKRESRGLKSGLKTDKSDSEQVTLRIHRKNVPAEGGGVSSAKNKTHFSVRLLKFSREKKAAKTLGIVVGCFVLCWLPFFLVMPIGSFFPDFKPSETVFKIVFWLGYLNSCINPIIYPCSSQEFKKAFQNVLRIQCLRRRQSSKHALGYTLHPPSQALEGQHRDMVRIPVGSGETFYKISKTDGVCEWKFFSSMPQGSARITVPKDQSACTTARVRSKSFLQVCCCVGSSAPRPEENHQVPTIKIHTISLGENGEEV
Experimental: Determination of investigated compounds' binding to α1A receptor was carried out according to the method described in [Michel AD, Loury DN and Whiting R1. Identification of a single α1A-adrenoceptor corresponding to the α1A-subtype in rat submaxillary gland. […] Prazosin is used as positive control.

adrenergic receptor α1B = biological target: T7, adrenergic receptor α1B (Rattus norvegicus, UniProt P15823); test: Radioligand binding to adrenergic receptor α1B ([3H] Prazosin, rat liver membranes); conditions: for α-Adrenoceptor, % inhibition α1B: 10 µM ligand
T7 construct: membrane species from rat liver (rat of Wistar breed) are prepared; from tissue; host or cells: rat (Wistar) liver
T7 sequence (P15823 1-515): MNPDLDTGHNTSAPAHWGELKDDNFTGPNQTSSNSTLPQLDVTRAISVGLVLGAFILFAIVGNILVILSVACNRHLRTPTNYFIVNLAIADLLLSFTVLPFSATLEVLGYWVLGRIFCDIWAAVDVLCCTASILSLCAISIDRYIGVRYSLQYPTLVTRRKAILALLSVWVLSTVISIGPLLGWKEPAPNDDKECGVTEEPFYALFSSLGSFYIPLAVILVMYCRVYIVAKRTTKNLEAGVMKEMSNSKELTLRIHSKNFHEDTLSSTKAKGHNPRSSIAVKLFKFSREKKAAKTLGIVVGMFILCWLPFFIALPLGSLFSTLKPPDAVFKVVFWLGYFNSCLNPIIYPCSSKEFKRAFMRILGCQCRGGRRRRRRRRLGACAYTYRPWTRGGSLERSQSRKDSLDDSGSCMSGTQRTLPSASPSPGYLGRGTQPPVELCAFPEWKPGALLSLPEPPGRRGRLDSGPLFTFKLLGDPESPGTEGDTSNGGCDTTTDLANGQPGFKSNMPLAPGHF
Source text: Species heterogeneity of hepatic α1A-, α1B-, and α1C-subtypes. Biochem Biophys Res Commun. […] Prazosin is used as positive control.

[2] = biological target: T8, recombinant human 5-HT6 receptor (Homo sapiens, UniProt P50406); test: Radioligand binding to serotonin receptor 5-HT6 ([3H] Lysergic acid diethylamide, HeLa membranes); conditions: for inhibition at 1 µM: read-out: 5-HT6 % inhibition
T8 construct: expressed in transfected cells; host or cells: HeLa
Source text: Mol Pharmacol. 43:320-327, 1993]. […] Methiothepin is used as positive control.

[3] = biological target: T9, recombinant human 5-HT2A receptor (Homo sapiens, UniProt P28223); test: Radioligand binding to serotonin receptor 5-HT2A ([3H] Ketanserin, CHO-K1 membranes)
T9 construct: expressed in transfected cells; host or cells: CHO-K1
Source text: 9-C. […] J Neurochem. […] Ketanserin is used as positive control.

[4] = biological target: T10, recombinant human 5-HT2B receptor (Homo sapiens, UniProt P41595); test: Radioligand binding to serotonin receptor 5-HT2B ([3H] Lysergic acid diethylamide, CHO-K1 membranes)
T10 construct: expressed in transfected cells; host or cells: CHO-K1
T10 sequence (P41595 whole entry): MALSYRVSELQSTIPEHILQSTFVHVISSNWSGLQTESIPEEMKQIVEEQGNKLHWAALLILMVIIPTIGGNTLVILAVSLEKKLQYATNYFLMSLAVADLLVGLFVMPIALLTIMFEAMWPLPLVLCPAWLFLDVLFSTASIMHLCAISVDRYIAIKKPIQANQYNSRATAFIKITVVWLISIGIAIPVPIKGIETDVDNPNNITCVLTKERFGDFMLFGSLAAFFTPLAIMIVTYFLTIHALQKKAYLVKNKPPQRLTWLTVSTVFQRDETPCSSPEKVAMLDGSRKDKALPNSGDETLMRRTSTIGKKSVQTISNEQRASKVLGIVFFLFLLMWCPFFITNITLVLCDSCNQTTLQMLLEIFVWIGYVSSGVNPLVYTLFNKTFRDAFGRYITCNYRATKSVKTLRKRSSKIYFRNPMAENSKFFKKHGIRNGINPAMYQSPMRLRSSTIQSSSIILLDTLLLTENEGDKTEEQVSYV
Experimental: For this purpose membrane species are prepared from CHO-K1 cells comprising recombinant human 5-HT2B receptor by homogenization of recombinant cells in glass homogenizer with the subsequent separation of plasmatic membranes from cell nuclei, mitochondrias and cell wreckages by differential centrifugation. […] After incubation the samples are filtered in vacuo on glass-microfiber filters G/F (Millipor, USA), filters are washed three times with cold solution of medium and radioactivity is measured by scintillation counter MicroBeta 340 (Perkin Elmer, USA). […] Ketanserin is used as positive control. The tested compounds' binding to the receptor is determined by their ability to displace the radioligand and is expressed in percent of displacement (%I). Values of %I are calculated according to the following equation: %I = (TA-CA)/(TA-NA)*100, [formula] wherein: TA - is the overall radioactivity in the presence of radioligand only, CA - is the radioactivity in the presence of radioligand and tested compound and NA - is the radioactivity in the presence of radioligand and Serotonin (10 µM).

T8 sequence (P50406 whole entry): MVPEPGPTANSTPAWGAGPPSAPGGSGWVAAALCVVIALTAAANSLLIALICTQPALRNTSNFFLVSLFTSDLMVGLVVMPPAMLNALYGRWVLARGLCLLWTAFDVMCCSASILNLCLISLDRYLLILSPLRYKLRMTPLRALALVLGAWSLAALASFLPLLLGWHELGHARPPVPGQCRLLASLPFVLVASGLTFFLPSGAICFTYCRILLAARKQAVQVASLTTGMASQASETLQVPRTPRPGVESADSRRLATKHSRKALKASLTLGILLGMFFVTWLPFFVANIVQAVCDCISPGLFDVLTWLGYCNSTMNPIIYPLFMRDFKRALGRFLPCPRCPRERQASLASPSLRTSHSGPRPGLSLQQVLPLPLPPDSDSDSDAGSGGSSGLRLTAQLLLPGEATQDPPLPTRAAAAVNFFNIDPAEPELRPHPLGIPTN
T2 sequence (P25021 whole entry): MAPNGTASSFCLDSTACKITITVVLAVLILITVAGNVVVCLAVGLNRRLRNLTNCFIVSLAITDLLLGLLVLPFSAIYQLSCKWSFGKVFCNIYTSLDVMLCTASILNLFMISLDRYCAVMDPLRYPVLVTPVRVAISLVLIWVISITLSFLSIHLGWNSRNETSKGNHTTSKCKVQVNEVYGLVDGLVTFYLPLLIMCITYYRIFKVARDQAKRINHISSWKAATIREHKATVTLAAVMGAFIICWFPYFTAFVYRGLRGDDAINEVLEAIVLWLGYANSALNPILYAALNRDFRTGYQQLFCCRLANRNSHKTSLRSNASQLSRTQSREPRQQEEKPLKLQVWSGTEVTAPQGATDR
T9 sequence (P28223 whole entry): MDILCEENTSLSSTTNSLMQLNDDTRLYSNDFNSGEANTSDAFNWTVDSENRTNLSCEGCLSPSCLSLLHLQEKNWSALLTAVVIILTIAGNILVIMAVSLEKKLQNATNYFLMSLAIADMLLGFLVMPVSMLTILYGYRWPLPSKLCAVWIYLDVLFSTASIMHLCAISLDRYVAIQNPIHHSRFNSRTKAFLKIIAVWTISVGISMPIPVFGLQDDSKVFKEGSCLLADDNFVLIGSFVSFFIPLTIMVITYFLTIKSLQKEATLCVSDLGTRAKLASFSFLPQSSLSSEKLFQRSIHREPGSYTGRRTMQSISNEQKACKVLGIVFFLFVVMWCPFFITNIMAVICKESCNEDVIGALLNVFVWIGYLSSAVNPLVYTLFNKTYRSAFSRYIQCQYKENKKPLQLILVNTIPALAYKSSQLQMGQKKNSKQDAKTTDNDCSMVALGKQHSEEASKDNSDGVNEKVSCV
T1 sequence (P35367 whole entry): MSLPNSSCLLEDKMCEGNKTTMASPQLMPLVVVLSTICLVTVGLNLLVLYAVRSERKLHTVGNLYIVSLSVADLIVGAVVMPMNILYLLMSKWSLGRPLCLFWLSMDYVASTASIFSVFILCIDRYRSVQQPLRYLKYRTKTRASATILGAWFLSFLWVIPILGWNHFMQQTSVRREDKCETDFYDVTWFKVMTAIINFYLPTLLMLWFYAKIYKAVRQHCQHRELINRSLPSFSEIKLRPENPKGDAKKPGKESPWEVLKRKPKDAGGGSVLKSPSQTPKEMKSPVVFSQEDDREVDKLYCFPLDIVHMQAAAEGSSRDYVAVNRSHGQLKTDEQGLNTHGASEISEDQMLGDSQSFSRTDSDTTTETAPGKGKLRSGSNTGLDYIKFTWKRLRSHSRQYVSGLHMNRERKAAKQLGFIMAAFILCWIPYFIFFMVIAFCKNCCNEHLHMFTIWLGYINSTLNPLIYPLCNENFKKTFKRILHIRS

COc1ccc2c(c1)c1c(n2CCc2ccccn2)CCN(C)C1 [1.1.2(2-4)·2HCl]
enhancement of memory disturbed by Scopolamine (male mice of BALB/c line): improve memory

Cc1ccc2c(c1)c1c(n2CCc2ccc(C)nc2)CCN(C)C1 [1.1.2(4-4)·2CH3SO3H, 2,8-dimethyl-5-[2-(4-methylpyridin-3-yl)ethyl]-1,2,3,4-tetrahydro-1H-pyrido[4,3-b]indole bis-methylsulfonate]
Histamine receptors, % inhibition H1 (human H1 receptor; 10 µM ligand, 10 µM): 102%
inhibition at 10 µM (human H2 receptor; 10 µM ligand): 99%

Cc1ccc2c(c1)c1c(n2CCc2ccc(C)nc2)CCN(C)C1 [1.1.2(4-5)·1/2NDSA, 2,8-dimethyl-5-[2-(4-methylpyridin-3-yl)ethyl]-1,2,3,4-tetrahydro-1H-pyrido[4,3-b]indole naphtalene-1,5-disulfonate]
Histamine receptors, % inhibition H2 (human H2 receptor; 10 µM ligand, 10 µM): 100%

Cc1ccc2c(c1)c1c(n2CCc2cccnc2)CCCN(C)C1 [1.2.2(3-2)·2HCl]
inhibition at 1 µM [1]: 90%
inhibition at 10 µM (human α2A receptor; read-out: α-Adrenoceptor, % inhibition α2A): 71%
inhibition at 10 µM (human α1D receptor): 60%
% inhibition (imidazoline receptor I2): 63%
inhibition at 10 µM (adrenergic receptor α1A; read-out: α-Adrenoceptor, % inhibition α1A): 61%
inhibition at 10 µM (adrenergic receptor α1B; read-out: α-Adrenoceptor, % inhibition α1B): 75%
inhibition at 1 µM [2]: 79%

Cc1ccc2c(c1)c1c(n2CCc2ccc(C)nc2)CCCN(C)C1 [1.2.2(4-1)]
α-Adrenoceptor, % inhibition α2A (human α2A receptor; 10 µM ligand): 79%
α-Adrenoceptor, % inhibition α1D (human α1D receptor): 68%
% inhibition (imidazoline receptor I2): 80%
α-Adrenoceptor, % inhibition α1A (adrenergic receptor α1A): 80%
α-Adrenoceptor, % inhibition α1B (adrenergic receptor α1B): 85%

Cc1ccc2c(c1)c1c(n2CCc2ccncc2)CCCN(C)C1 [1.2.2(5-2)]
α-Adrenoceptor, % inhibition α1D (human α1D receptor): 68%
% inhibition (imidazoline receptor I2): 72%
α-Adrenoceptor, % inhibition α1A (adrenergic receptor α1A): 74%
α-Adrenoceptor, % inhibition α1B (adrenergic receptor α1B): 89%

Cc1ccc(S(=O)(=O)n2c3c(c4cc(C)ccc42)CN(C)CCC3)cc1 [1.8.1(3)·HCl]
nH ([3]; 5-HT2A): 1.01
inhibition at 1 µM ([3]; ligand concentration 1 µM): 100%
inhibition at 10 µM (human H1 receptor; read-out: Histamine receptors, % inhibition H1, 10 µM ligand): 95%
inhibition at 1 µM [1]: 90%
inhibition at 10 µM (human α1D receptor): 55%
nH ([4]; 5-HT2B): 0.784
inhibition at 1 µM ([4]; read-out: 5-HT2B % inhibition): 101%
% inhibition (imidazoline receptor I2): 17%
inhibition at 10 µM (human H2 receptor): 82%
pIC50 [2]: 6.27
pKi [2]: 6.51
nH ([2]; 5-HT6): 1.07
nH ([2]; last block of Table 11: receptor printed 5-HT6 in r18, cell blank in r19-r21): 0.665
inhibition at 1 µM [2]: 93%
